From patent US9586968B2, “Bicycloamine-substituted-N-benzenesulfonamide compounds with selective activity in voltage-gated sodium channels” (Merck Sharp & Dohme Corp., priority 2013, dated 2017)

Assays:
human Nav1.5 = target: T1, human Nav1.5 (Homo sapiens, UniProt Q14524); assay: PatchXpress automated patch-clamp, inactivated state block of Nav1.5 (selectivity); format: cell-based; settings: determined by PatchXpress measurement, HEK 293 cells
T1 construct: expressed in transfected cells
In short: (§1)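 HEK 293 cells stably expressing the channel, recorded at 22° C on PatchXpress with a double-pulse protocol: hold 20 mV negative to V0.5 inact, 8000 ms prepulse 7 mV positive to V0.5 inact, 2 ms step to −120 mV, 20 ms test pulse to −20 mV. Rundown-corrected inhibition fitted to Hill equation for IC50.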

human Nav1.7 = target: T2, human Nav1.7 (Homo sapiens, UniProt Q15858); assay: PatchXpress automated patch-clamp, inactivated state block of Nav1.7; format: cell-based; settings: channels stably expressed in HEK 293 cells, 22° C., read-out: potency for the Nav 1.7 sodium ion channel (as measured by PatchXpress)
T2 construct: expressed in transfected cells
T2 sequence (Q15858 whole entry): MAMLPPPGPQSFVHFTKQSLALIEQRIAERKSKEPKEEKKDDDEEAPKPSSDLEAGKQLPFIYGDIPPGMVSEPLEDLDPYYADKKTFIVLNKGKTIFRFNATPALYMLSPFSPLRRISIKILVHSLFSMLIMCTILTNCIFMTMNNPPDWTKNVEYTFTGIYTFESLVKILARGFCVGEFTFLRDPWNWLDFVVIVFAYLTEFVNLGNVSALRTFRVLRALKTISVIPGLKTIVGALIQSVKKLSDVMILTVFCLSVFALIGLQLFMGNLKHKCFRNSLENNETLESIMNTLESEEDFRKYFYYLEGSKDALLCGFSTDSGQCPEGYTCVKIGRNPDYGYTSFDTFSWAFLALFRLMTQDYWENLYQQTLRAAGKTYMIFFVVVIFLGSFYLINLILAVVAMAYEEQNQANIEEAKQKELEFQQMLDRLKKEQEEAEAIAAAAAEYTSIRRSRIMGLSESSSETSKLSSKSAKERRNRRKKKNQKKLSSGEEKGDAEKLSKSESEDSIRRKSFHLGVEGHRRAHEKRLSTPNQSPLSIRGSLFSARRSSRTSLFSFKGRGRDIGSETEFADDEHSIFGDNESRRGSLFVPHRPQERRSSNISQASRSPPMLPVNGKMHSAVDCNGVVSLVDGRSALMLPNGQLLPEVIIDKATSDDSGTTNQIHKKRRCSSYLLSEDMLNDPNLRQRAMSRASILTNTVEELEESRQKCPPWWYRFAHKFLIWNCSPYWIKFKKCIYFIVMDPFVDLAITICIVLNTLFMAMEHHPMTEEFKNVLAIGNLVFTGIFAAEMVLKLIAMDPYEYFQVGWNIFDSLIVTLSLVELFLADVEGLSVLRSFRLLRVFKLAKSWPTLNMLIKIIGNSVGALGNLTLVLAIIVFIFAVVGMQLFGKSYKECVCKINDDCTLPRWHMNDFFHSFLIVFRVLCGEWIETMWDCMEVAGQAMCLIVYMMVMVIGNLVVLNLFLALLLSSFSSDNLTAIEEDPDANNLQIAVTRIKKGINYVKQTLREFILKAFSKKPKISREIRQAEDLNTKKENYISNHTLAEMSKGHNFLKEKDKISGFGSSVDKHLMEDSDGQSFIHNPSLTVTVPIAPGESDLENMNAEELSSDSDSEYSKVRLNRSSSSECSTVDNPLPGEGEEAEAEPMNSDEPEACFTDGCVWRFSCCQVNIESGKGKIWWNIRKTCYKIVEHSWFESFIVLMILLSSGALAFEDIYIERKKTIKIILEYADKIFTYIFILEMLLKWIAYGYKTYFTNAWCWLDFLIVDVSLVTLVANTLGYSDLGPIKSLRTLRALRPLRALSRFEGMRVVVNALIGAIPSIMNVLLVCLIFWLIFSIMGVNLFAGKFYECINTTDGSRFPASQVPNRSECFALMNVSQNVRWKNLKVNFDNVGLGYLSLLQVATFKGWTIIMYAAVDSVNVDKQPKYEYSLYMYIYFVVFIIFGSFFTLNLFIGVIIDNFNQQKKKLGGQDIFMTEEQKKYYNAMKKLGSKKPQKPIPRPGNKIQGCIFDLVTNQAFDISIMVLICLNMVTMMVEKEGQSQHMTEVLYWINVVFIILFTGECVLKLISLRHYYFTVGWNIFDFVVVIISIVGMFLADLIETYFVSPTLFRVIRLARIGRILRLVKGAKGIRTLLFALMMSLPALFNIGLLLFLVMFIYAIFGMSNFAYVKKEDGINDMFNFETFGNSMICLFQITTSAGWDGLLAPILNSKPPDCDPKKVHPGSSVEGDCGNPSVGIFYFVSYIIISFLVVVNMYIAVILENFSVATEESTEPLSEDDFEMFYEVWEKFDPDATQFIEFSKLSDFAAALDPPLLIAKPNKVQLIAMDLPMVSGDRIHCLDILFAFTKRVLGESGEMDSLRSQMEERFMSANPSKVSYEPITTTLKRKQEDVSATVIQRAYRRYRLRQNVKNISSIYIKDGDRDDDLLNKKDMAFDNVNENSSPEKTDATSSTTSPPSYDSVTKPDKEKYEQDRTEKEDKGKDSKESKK
In short: as §1

T1 sequence (Q14524 whole entry): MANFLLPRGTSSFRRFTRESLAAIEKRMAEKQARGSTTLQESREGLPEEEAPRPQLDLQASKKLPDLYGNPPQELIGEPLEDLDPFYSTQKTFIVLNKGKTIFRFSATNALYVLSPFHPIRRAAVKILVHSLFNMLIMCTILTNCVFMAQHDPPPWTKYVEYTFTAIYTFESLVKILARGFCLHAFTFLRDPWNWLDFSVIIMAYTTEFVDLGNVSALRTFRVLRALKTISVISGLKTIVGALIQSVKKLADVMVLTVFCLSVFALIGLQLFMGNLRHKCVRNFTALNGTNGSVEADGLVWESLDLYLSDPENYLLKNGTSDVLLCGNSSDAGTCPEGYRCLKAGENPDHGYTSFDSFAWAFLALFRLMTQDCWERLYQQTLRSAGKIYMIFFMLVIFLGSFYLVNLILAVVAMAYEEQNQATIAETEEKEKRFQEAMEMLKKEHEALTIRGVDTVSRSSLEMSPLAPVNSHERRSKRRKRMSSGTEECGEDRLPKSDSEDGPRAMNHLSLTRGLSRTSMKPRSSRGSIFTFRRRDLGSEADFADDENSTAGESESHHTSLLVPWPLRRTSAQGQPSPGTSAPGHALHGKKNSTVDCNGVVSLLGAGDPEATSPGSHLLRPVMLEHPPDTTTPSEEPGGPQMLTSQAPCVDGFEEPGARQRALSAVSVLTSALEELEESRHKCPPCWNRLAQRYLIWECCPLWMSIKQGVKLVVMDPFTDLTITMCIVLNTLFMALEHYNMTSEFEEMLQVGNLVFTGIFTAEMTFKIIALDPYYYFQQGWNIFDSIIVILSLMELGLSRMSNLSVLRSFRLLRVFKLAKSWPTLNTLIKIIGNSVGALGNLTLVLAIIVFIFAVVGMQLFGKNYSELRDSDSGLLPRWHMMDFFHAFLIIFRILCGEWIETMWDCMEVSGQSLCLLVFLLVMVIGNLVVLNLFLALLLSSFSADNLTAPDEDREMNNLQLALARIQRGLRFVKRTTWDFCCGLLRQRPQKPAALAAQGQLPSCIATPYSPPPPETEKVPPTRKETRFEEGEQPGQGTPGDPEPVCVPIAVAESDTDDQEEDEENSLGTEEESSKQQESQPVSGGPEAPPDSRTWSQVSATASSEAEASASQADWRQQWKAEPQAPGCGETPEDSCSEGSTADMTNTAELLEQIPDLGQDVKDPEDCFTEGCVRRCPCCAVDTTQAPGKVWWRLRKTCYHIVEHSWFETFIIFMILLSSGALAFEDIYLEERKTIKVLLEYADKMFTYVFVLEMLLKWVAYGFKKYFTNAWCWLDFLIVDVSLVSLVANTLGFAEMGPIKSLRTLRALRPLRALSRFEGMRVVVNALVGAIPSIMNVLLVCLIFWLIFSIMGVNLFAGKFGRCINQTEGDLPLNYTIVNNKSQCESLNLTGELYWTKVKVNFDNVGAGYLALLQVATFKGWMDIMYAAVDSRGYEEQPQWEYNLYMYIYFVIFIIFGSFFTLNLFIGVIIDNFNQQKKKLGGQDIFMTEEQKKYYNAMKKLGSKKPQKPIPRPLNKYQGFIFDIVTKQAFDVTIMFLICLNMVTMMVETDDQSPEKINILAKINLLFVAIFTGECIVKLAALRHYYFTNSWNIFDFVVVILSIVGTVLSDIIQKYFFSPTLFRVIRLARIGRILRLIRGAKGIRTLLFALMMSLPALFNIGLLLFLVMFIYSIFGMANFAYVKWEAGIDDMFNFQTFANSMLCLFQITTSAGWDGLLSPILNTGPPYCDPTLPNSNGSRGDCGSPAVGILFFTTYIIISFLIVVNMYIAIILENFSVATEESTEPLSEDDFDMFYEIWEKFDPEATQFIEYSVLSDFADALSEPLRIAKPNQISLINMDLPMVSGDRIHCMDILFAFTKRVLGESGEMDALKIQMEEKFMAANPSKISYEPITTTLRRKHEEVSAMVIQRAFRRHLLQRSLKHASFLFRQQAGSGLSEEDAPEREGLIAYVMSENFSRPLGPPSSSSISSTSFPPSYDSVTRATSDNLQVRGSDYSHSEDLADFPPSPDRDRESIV

Row | IC50 (human Nav1.7) [nM] | SMILES | ratio of Nav1.7 potency:Nav 1.5 potency (human Nav1.5)
1 | 10 | CC1CN2CCCC2(CNc2cc(F)c(S(=O)(=O)Nc3ncc(Cl)s3)cc2Cl)C1 [Ex4-10, 5-chloro-N-(5-chlorothiazol-2-yl)-2-fluoro-4-((((2S,7aR and 2R,7aS)-2-methylhexahydro-1H-pyrrolizin-7a-yl)methyl)-amino)benzene-sulfonamide] | 2681
2 | 5 | CC1CN2CCCC2(CNc2ccc(S(=O)(=O)Nc3nccs3)cc2Cl)C1 [Ex4-11, 3-chloro-4-((((2S/7aR and 2R,7aS)-2-methylhexahydro-1H-pyrrolizin-7a-yl)methyl)amino)-N-(thiazol-2-yl)benzenesulfonamide] | 7180
3 | 41 | O=S(=O)(Nc1nccs1)c1cc(Cl)c(NCC23CCCN2CCC3)cc1Br [Ex12-5, 2-bromo-5-chloro-4-(((hexahydro-1H-pyrrolizin-7a-yl)methyl)amino)-N-(thiazol-2-yl)benzenesulfonamide] | 288
4 | 95 | N#Cc1cc(NCC23CCCN2CCC3)c(Cl)cc1S(=O)(=O)Nc1nccs1 [Ex12-6, 5-chloro-2-cyano-4-(((hexahydro-1H-pyrrolizin-7a-yl)methyl)amino)-N-(thiazol-2-yl)benzenesulfonamide] | 180
5 | 26 | Cc1cc(NCC23CCCN2CCC3)c(Cl)cc1S(=O)(=O)Nc1nccs1 [Ex12-7, 5-chloro-4-(((hexahydro-1H-pyrrolizin-7a-yl)methyl)amino)-2-methyl-N-(thiazol-2-yl)benzenesulfonamide] | 163
6 | 19 | CCc1cc(S(=O)(=O)Nc2nccs2)c(F)cc1NCC12CCCN1CCC2 [Ex18-7, 5-ethyl-2-fluoro-4-(((hexahydro-1H-pyrrolizin-7a-yl)-methyl)amino)-N-(thiazol-2-yl)-benzenesulfonamide] | 672
7 | 5 | CCc1cc(S(=O)(=O)Nc2ncc(F)s2)c(F)cc1NCC12CCCN1CCC2 [Ex18-8, 5-ethyl-2-fluoro-N-(5-fluorothiazol-2-yl)-4-(((hexahydro-1H-pyrrolizin-7a-yl)-methyl)amino)-benzenesulfonamide] | 2595
